Source: patent publication US4771057A, “Reduced pyridyl derivatives with cardiovascular regulating properties” (University of Alberta, priority 1986, dated 1988)
Where two headings read alike, the source gives them in different places.

Tests used:
[1] = system: calcium channel; conditions: literature comparison for D-30; cited from earlier work
[2] = system: guinea pig ileal longitudinal smooth muscle; test: Calcium channel agonist testing: contractile response of guinea pig ileal longitudinal smooth muscle, compound given in place of CD; format: cell-based; conditions: for EC50: Cavia porcellus, given in the place of CD, no calcium antagonist added, read-out: effective dose producing 50% of the maximum contractile response
Experimental: Calcium channel antagonist activity was determined as the concentration required to produce 50% inhibition of the muscarinic receptor-mediated Ca^2+ -dependent contraction of guinea pig ileal longitudinal smooth muscle assay (C. Triggle, V. Swamy and D. Triggle, Can. J. Physiol. Pharmacol., 1979, 57, 804). Male albino guinea pigs (body weight 300-450 g) were sacrificed by decapitation. The intestine was removed above the ileo-caecal junction. Longitudinal smooth muscle segments of 2 cm length were mounted under a resting tension of 300-400 mg. The segments were maintained at 37° C. in a 10 mL jacketed organ bath containing oxygenated (100% O2) physiological saline solution of the following composition (mM): NaCl: 137; CaCl2 : 2.6; KCl: 5.9; MgCl2 : 1.2; glucose: 11.9; buffered by Hepes-NaOH to pH 7.4. The muscles were equilibrated for 1 h with a solution change every 15 min. Two successive control contractions were elicited at 15 min intervals with 5×10^-7 M cis-2-methyl- 4-dimethylaminomethyl-1,3-dioxolane methiodide (CD). The isometric contractions were recorded with a force displacement transducer (FT 03C) on a GRASS physiograph. The means of the two contractile responses was taken as the 100% value for the tonic (slow) component of the response. The muscle was washed with Hepes saline solution and was allowed to re-equilibrate. The calcium antagonist (test compound) was added ten min before the dose-response for CD was determined. The drug-induced inhibition of contraction was expressed as percent of control. The ID50 values were graphically determined from the concentration-response curves. The test results are shown in Table 7, the compounds testing being compared to Nifedipine (TM).
(§1) A modified protocol, used for testing calcium channel antagonists (vide supra), was used to determine the concentration at which D-30 produced 50% of the maximum contractile response. D-30 was administered in the place of CD and the dose-response curve was determined. A calcium antagonist was not added during the experiment. […] Similarly, the effective dose of the isomeric D-31 producing 50% of the maximum contractile response was 6.6×10^-5 M. Both D-30 and D-31 increased the guinea pig right atria heart rate by 30%.

[3] = system: guinea pig right atria; test: Guinea pig right atria heart rate; format: cell-based
Experimental: as §1

[4] = system: guinea pig ileal longitudinal smooth muscle; test: Calcium channel antagonist testing: inhibition of muscarinic receptor-mediated Ca2+-dependent contraction (response to CD) of guinea pig ileal longitudinal smooth muscle; format: cell-based; conditions: for IC50: 50% inhibition of tonic contraction to CD 5×10^-7 M, compound added 10 min before CD, 37° C., pH 7.4, read-out: Calcium channel antagonist act., inhib. act. on contractile response to CD, ID50; for calcium channel antagonist activity, comparison to Nifedipine (TM): conclusion from Table 7
Experimental: Male albino guinea pigs (body weight 300-450 g) were sacrificed by decapitation. The intestine was removed above the ileo-caecal junction. Longitudinal smooth muscle segments of 2 cm length were mounted under a resting tension of 300-400 mg. […] The muscles were equilibrated for 1 h with a solution change every 15 min. Two successive control contractions were elicited at 15 min intervals with 5×10^-7 M cis-2-methyl- 4-dimethylaminomethyl-1,3-dioxolane methiodide (CD). The isometric contractions were recorded with a force displacement transducer (FT 03C) on a GRASS physiograph. The means of the two contractile responses was taken as the 100% value for the tonic (slow) component of the response. The muscle was washed with Hepes saline solution and was allowed to re-equilibrate. The calcium antagonist (test compound) was added ten min before the dose-response for CD was determined. The drug-induced inhibition of contraction was expressed as percent of control. The ID50 values were graphically determined from the concentration-response curves.

Compound | IC50 ([4]; Cavia porcellus) [µM] | IC50 [4] [µM] | further results
COC(=O)C1=C(C)NC(C)=C([N+](=O)[O-])C1c1ccccc1C(F)(F)F (stereo not drawn) [Bay K 8644] | – | – | calcium channel agonist activity of reference compounds [1]: calcium channel agonist which promotes calcium entry into cells
CCOC(=O)C1=C(C)NC2=C(C(=O)OC2)C1c1ccccc1OC(F)F (stereo not drawn) [CGP 28392] | – | – | calcium channel agonist activity of reference compounds [1]: calcium channel agonist which promotes calcium entry into cells
COC(=O)C1=C(C)NC(C)=C([N+](=O)[O-])C1c1cccnc1 [Compound D-30, methyl 2,6-dimethyl-3-nitro-4-(3'-pyridyl)-1,4-dihydropyridine-5-carboxylate] | – | – | EC50 [2]: 94 µM; calcium channel agonist activity ([2]; conclusion from contractile response): calcium channel agonist which promotes calcium entry into cells; muscle contraction ([2]; tested using the calcium channel antagonist testing procedure): caused muscle contraction; increase of guinea pig right atria heart rate [3]: 30%
COC(=O)C1=C(C)NC(C)=C([N+](=O)[O-])C1c1ccncc1 [Compound D-31, methyl 2,6-dimethyl-3-nitro-4-(4'-pyridyl)-1,4-dihydropyridine-5-carboxylate] | – | – | EC50 [2]: 66 µM; increase of guinea pig right atria heart rate [3]: 30%
COC(=O)C1=C(C)NC(C)=C(C(=O)OC)C1C1=CCN(C)CC1 [Compound D-66, Dimethyl 2,6-dimethyl-4-[4'-(N--methyl-1',2',3',6'-tetrahydropyridyl)]-1,4-dihydropyridine-3,5-dicarboxylate] | 181 | – | –
CCOC(=O)C1=C(C)NC(C)=C(C(=O)OCC)C1C1=CCN(C)CC1 [Compound D-67, Diethyl 2,6-dimethyl-4-[4'-(N--methyl-1',2',3',6'-tetrahydropyridyl)]-1,4-dihydropyridine-3,5-dicarboxylate] | 4.96 | – | –
COC(=O)C1=C(C)NC(C)=C(C(=O)OC)C1C1=CCCN(C)C1 [Compound D-68, Dimethyl 2,6-dimethyl-4-[5'-(N--methyl-1',2',3',6'-tetrahydropyridyl)]-1,4-dihydropyridine-3,5-dicarboxylate] | 3.43 | – | –
CCOC(=O)C1=C(C)NC(C)=C(C(=O)OCC)C1C1=CCCN(C)C1 [Compound D-69, Diethyl 2,6-dimethyl-4-[5'-(N--methyl-1',2',3',6'-tetrahydropyridyl)]-1,4-dihydropyridine-3,5-dicarboxylate] | 1.1 | – | –
Diethyl 2,6-dimethyl-4-{3'-[N--methoxycarbonyl-1',2'-(1',6'-)dihydropyridyl]}-1,4-dihydropyridine-3,5-dicarboxylate [Compound D-33] | – | 0.18 | calcium channel antagonist activity, comparison to Nifedipine (TM) [4]: active calcium channel antagonists, being comparable to Nifedipine (TM)
Diethyl 2,6-dimethyl-4-{3'-[N--phenoxycarbonyl-1',2'-(1',6'-)dihydropyridyl]}-1,4-dihydropyridine-3,5-dicarboxylate [Compound D-37] | – | 0.865 | calcium channel antagonist activity, comparison to Nifedipine (TM) [4]: active calcium channel antagonists, being comparable to Nifedipine (TM)
Diethyl 2,6-dimethyl-4-{3'-[N--t-butoxycarbonyl-1',2'-(1',6'-)dihydropyridyl]}-1,4-dihydropyridine-3,5-dicarboxylate [Compound D-40] | – | 0.672 | calcium channel antagonist activity, comparison to Nifedipine (TM) [4]: active calcium channel antagonists, being comparable to Nifedipine (TM)
Diisobutyl 2,6-dimethyl-4-{3'-[N--methoxycarbonyl-1',2'(1',6'-)dihydropyridyl]}-1,4-dihydropyridine-3,5-dicarboxylate [Compound D-35] | – | 0.771 | calcium channel antagonist activity, comparison to Nifedipine (TM) [4]: active calcium channel antagonists, being comparable to Nifedipine (TM)
Diisobutyl 2,6-dimethyl-4-{3'-[N--phenoxycarbonyl-1',2'-(1',6'-)dihydropyridyl]}-1,4-dihydropyridine-3,5-dicarboxylate [Compound D-39] | – | 6.46 | –
Diisobutyl 2,6-dimethyl-4-{3'-[N--t-butoxycarbonyl-1',2'-(1',6'-)dihydropyridyl]}-1,4-dihydropyridine-3,5-dicarboxylate [Compound D-42] | – | 3.42 | –
Diisopropyl 2,6-dimethyl-4-{3'-[N-- phenoxycarbonyl-1',2'-(1',6'-)dihydropyridyl]}-1,4-dihydropyridine-3,5-dicarboxylate [Compound D-38] | – | 1.67 | –
Diisopropyl 2,6-dimethyl-4-{3'-[N--methoxycarbonyl-1',2'-(1',6'-)dihydropyridyl]}-1,4-dihydropyridine-3,5-dicarboxylate [Compound D-34] | – | 0.131 | calcium channel antagonist activity, comparison to Nifedipine (TM) [4]: active calcium channel antagonists, being comparable to Nifedipine (TM)
Dimethyl 2,6-dimethyl-4-{3'-[N--phenoxycarbonyl-1',2'-(1',6'-)dihydropyridyl]}-1,4-dihydropyridine-3,5-dicarboxylate [Compound D-36] | – | 3.7 | –

Now from value to compound, other results behind:

IC50 ([4]; Cavia porcellus) [µM] | IC50 [4] [µM] | Compound | further results
2.15 | – | COC(=O)C1=C(C)N(C)C(C)C(C(=O)OC)=C1c1ccccc1 (stereo not drawn) [Compound S-1, Dimethyl 1,2,6-trimethyl-4-phenyl-1,2-dihydropyridine-3,5-dicarboxylate] | –
3.5 | – | COC(=O)C1=C(C)N(C)C(C)C(C(=O)OC)=C1c1cccc(C(F)(F)F)c1 (stereo not drawn) [Compound S-2, Dimethyl 1,2,6-trimethyl-4-(3-trifluoromethylphenyl)-1,2-dihydropyridine-3,5-dicarboxylate] | –
12 | – | COC(=O)C1=C(C)N(C)C(C)C(C(=O)OC)=C1c1ccccc1C(F)(F)F (stereo not drawn) [Compound S-3, Dimethyl 1,2,6-trimethyl-4-(2-trifluoromethylphenyl)-1,2-dihydropyridine-3,5-dicarboxylate] | –
23.5 | – | COC(=O)C1=C(C)N(C)C(C)C(C(=O)OC)=C1c1ccc([N+](=O)[O-])cc1 (stereo not drawn) [Compound S-4, Dimethyl 1,2,6-trimethyl-4-(4-nitrophenyl)-1,2-dihydropyridine-3,5-dicarboxylate] | –
7.9 | – | COC(=O)C1=C(C)N(C)C(C)C(C(=O)OC)=C1c1cccc([N+](=O)[O-])c1 (stereo not drawn) [Compound S-5, Dimethyl 1,2,6-trimethyl-4-(3-nitrophenyl)-1,2-dihydropyridine-3,5-dicarboxylate] | –
2.52 | – | COC(=O)C1=C(C)N(C)C(C)C(C(=O)OC)=C1c1ccccc1[N+](=O)[O-] (stereo not drawn) [Compound S-6, Dimethyl 1,2,6-trimethyl-4-(2-nitrophenyl)-1,2-dihydropyridine-3,5-dicarboxylate] | –
8.92 | – | COC(=O)C1=C(C)N(C)C(C)C(C(=O)OC)=C1c1ccc(C(F)(F)F)cc1 (stereo not drawn) [Compound W-1, Dimethyl 1,2,6-trimethyl-4-(4-trifluoromethylphenyl)-1,2-dihydropyridine-3,5-dicarboxylate] | –
20 | – | COC(=O)C1=C(c2ccccc2[N+](=O)[O-])C(C(=O)OC(C)C)=C(C)N(C)C1C (stereo not drawn) [Compound W-2, 3-Methyl-5-isopropyl 1,2,6-trimethyl-4-(2-nitrophenyl)-1,2-dihydropyridine-3,5-dicarboxylate] | –
10.5 | – | COC(=O)C1=C(C)N(C)C(C)C(C(=O)OC(C)C)=C1c1ccccc1[N+](=O)[O-] (stereo not drawn) [Compound W-3, 3-Isopropyl-5-methyl 1,2,6-trimethyl-4-(2-nitrophenyl)-1,2-dihydropyridine-3,5-dicarboxylate] | –
5.73 | – | CC1=C(C(=O)OC(C)C)C(c2ccccc2[N+](=O)[O-])=C(C(=O)OC(C)C)C(C)N1C (stereo not drawn) [Compound W-4, Diisopropyl 1,2,6-trimethyl-4-(2-nitrophenyl)-1,2-dihydropyridine-3,5-dicarboxylate] | –
